Test results taken from the NIST ThermoML archive (doi:10.1021/acs.jced.9b00396).

Settings: Liquid; for speed of sound: Frequency=3 MHz, Single path-length method; for mass density: Vibrating tube method

CC(=O)OCCC(C)C [3-methylbutyl ethanoate]
Settings	mass density [kg/m3]	speed of sound [m/s]
293.15 K, 100 kPa	872.9	1213
293.15 K, 500 kPa	874	–
293.15 K, 1000 kPa	874	–
293.15 K, 2500 kPa	875	–
293.15 K, 5000 kPa	877	–
293.15 K, 7500 kPa	879	–
293.15 K, 10000 kPa	881	–
293.15 K, 12500 kPa	883	–
293.15 K, 15000 kPa	885	–
293.15 K, 17500 kPa	887	–
293.15 K, 20000 kPa	889	–
293.15 K, 22500 kPa	891	–
293.15 K, 25000 kPa	893	–
293.15 K, 27500 kPa	895	–
293.15 K, 30000 kPa	896	–
293.15 K, 32500 kPa	898	–
293.15 K, 35000 kPa	899	–
293.15 K, 37500 kPa	901	–
298.15 K, 100 kPa	868	1193
298.15 K, 500 kPa	869	–
298.15 K, 1000 kPa	869	–
298.15 K, 2500 kPa	870	–
298.15 K, 5000 kPa	873	–
298.15 K, 7500 kPa	875	–
298.15 K, 10000 kPa	877	–
298.15 K, 12500 kPa	879	–
298.15 K, 15000 kPa	881	–
298.15 K, 17500 kPa	883	–
298.15 K, 20000 kPa	885	–
298.15 K, 22500 kPa	886	–
298.15 K, 25000 kPa	888	–
298.15 K, 27500 kPa	890	–
298.15 K, 30000 kPa	892	–
298.15 K, 32500 kPa	894	–
298.15 K, 35000 kPa	895	–
298.15 K, 37500 kPa	897	–
313.15 K, 100 kPa	853.3	1132
313.15 K, 500 kPa	854	–
313.15 K, 1000 kPa	854	–
313.15 K, 2500 kPa	856	–
313.15 K, 5000 kPa	858	–
313.15 K, 7500 kPa	861	–
313.15 K, 10000 kPa	863	–
313.15 K, 12500 kPa	865	–
313.15 K, 15000 kPa	867	–
313.15 K, 17500 kPa	869	–
313.15 K, 20000 kPa	871	–
313.15 K, 22500 kPa	873	–
313.15 K, 25000 kPa	875	–
313.15 K, 27500 kPa	877	–
313.15 K, 30000 kPa	879	–
313.15 K, 32500 kPa	881	–
313.15 K, 35000 kPa	883	–
313.15 K, 37500 kPa	885	–
333.15 K, 100 kPa	833.3	1045
333.15 K, 500 kPa	834	–
333.15 K, 1000 kPa	834	–
333.15 K, 2500 kPa	836	–
333.15 K, 5000 kPa	839	–
333.15 K, 7500 kPa	842	–
333.15 K, 10000 kPa	844	–
333.15 K, 12500 kPa	847	–
333.15 K, 15000 kPa	849	–
333.15 K, 17500 kPa	851	–
333.15 K, 20000 kPa	854	–
333.15 K, 22500 kPa	856	–
333.15 K, 25000 kPa	858	–
333.15 K, 27500 kPa	860	–
333.15 K, 30000 kPa	862	–
333.15 K, 32500 kPa	864	–
333.15 K, 35000 kPa	866	–
333.15 K, 37500 kPa	868	–
353.15 K, 500 kPa	814	–
353.15 K, 1000 kPa	814	–
353.15 K, 2500 kPa	816	–
353.15 K, 5000 kPa	819	–
353.15 K, 7500 kPa	823	–
353.15 K, 10000 kPa	825	–
353.15 K, 12500 kPa	828	–
353.15 K, 15000 kPa	831	–
353.15 K, 17500 kPa	834	–
353.15 K, 20000 kPa	836	–
353.15 K, 22500 kPa	839	–
353.15 K, 25000 kPa	841	–
353.15 K, 27500 kPa	843	–
353.15 K, 30000 kPa	846	–
353.15 K, 32500 kPa	848	–
353.15 K, 35000 kPa	850	–
353.15 K, 37500 kPa	852	–
373.15 K, 500 kPa	793	–
373.15 K, 1000 kPa	794	–
373.15 K, 2500 kPa	796	–
373.15 K, 5000 kPa	800	–
373.15 K, 7500 kPa	803	–
373.15 K, 10000 kPa	806	–
373.15 K, 12500 kPa	810	–
373.15 K, 15000 kPa	813	–
373.15 K, 17500 kPa	816	–
373.15 K, 20000 kPa	818	–
373.15 K, 22500 kPa	821	–
373.15 K, 25000 kPa	824	–
373.15 K, 27500 kPa	827	–
373.15 K, 30000 kPa	829	–
373.15 K, 32500 kPa	832	–
373.15 K, 35000 kPa	834	–
373.15 K, 37500 kPa	836	–
393.15 K, 500 kPa	772	–
393.15 K, 1000 kPa	773	–
393.15 K, 2500 kPa	775	–
393.15 K, 5000 kPa	779	–
393.15 K, 7500 kPa	783	–
393.15 K, 10000 kPa	787	–
393.15 K, 12500 kPa	791	–
393.15 K, 15000 kPa	794	–
393.15 K, 17500 kPa	798	–
393.15 K, 20000 kPa	801	–
393.15 K, 22500 kPa	804	–
393.15 K, 25000 kPa	807	–
393.15 K, 27500 kPa	810	–
393.15 K, 30000 kPa	812	–
393.15 K, 32500 kPa	815	–
393.15 K, 35000 kPa	818	–
393.15 K, 37500 kPa	820	–
413.15 K, 500 kPa	750	–
413.15 K, 1000 kPa	751	–
413.15 K, 2500 kPa	754	–
413.15 K, 5000 kPa	759	–
413.15 K, 7500 kPa	763	–
413.15 K, 10000 kPa	768	–
413.15 K, 12500 kPa	772	–
413.15 K, 15000 kPa	776	–
413.15 K, 17500 kPa	779	–
413.15 K, 20000 kPa	783	–
413.15 K, 22500 kPa	786	–
413.15 K, 25000 kPa	790	–
413.15 K, 27500 kPa	793	–
413.15 K, 30000 kPa	796	–
413.15 K, 32500 kPa	799	–
413.15 K, 35000 kPa	802	–
413.15 K, 37500 kPa	805	–
433.15 K, 500 kPa	726	–
433.15 K, 1000 kPa	727	–
433.15 K, 2500 kPa	731	–
433.15 K, 5000 kPa	737	–
433.15 K, 7500 kPa	742	–
433.15 K, 10000 kPa	747	–
433.15 K, 12500 kPa	752	–
433.15 K, 15000 kPa	757	–
433.15 K, 17500 kPa	761	–
433.15 K, 20000 kPa	765	–
433.15 K, 22500 kPa	769	–
433.15 K, 25000 kPa	772	–
433.15 K, 27500 kPa	776	–
433.15 K, 30000 kPa	779	–
433.15 K, 32500 kPa	783	–
433.15 K, 35000 kPa	786	–
433.15 K, 37500 kPa	789	–
453.15 K, 500 kPa	701	–
453.15 K, 1000 kPa	703	–
453.15 K, 2500 kPa	707	–
453.15 K, 5000 kPa	714	–
453.15 K, 7500 kPa	721	–
453.15 K, 10000 kPa	727	–
453.15 K, 12500 kPa	732	–
453.15 K, 15000 kPa	737	–
453.15 K, 17500 kPa	742	–
453.15 K, 20000 kPa	747	–
453.15 K, 22500 kPa	751	–
453.15 K, 25000 kPa	755	–
453.15 K, 27500 kPa	759	–
453.15 K, 30000 kPa	763	–
453.15 K, 32500 kPa	766	–
453.15 K, 35000 kPa	770	–
453.15 K, 37500 kPa	773	–
473.15 K, 500 kPa	674	–
473.15 K, 1000 kPa	676	–
473.15 K, 2500 kPa	682	–
473.15 K, 5000 kPa	691	–
473.15 K, 7500 kPa	698	–
473.15 K, 10000 kPa	705	–
473.15 K, 12500 kPa	712	–
473.15 K, 15000 kPa	717	–
473.15 K, 17500 kPa	723	–
473.15 K, 20000 kPa	728	–
473.15 K, 22500 kPa	733	–
473.15 K, 25000 kPa	738	–
473.15 K, 27500 kPa	742	–
473.15 K, 30000 kPa	746	–
473.15 K, 32500 kPa	750	–
473.15 K, 35000 kPa	754	–
473.15 K, 37500 kPa	757	–
